In US11229618B2 (Amarin Pharmaceuticals Ireland Limited, priority 2012, dated 2022):
Entries after “also recorded” stand apart in the source; their conditions may differ.

Legend:
[1] = MARINE: RBC fatty acid concentrations, ratios and class proportions (GC/FID); type: in vivo, human
Protocol: A multi-center, placebo-controlled randomized, double-blind, 12-week study with an open-label extension is performed to evaluate the efficacy and safety of AMR101 in patients with fasting triglyceride levels≥500 mg/dL. The primary objective of the study is to determine the efficacy of AMR101 2 g daily and 4 g daily, compared to placebo, in lowering fasting TG levels in patients with fasting TG levels≥500 mg/dL and ≤1500 mg/dL (≥5.65 mmol/L and ≤16.94 mmol/L).
Eligible patients will be randomly assigned at Visit 4 (Week 0) to receive orally AMR101 2 g daily, AMR101 4 g daily, or placebo for the 12-week double-blind treatment period. AMR101 is provided in 1 g liquid-filled, oblong, gelatin capsules. The matching placebo capsule is filled with light liquid paraffin and contains 0 g of AMR101. During the double-blind treatment period, patients will take 2 capsules (AMR101 or matching placebo) in the morning and 2 in the evening for a total of 4 capsules per day. Patients in the AMR101 2 g/day treatment group will receive 1 AMR101 1 g capsule and 1 matching placebo capsule in the morning and in the evening. Patients in the AMR101 4 g/day treatment group will receive 2 AMR101 1 g capsules in the morning and evening.
Lipids were extracted from plasma and RBC suspensions and converted into fatty acid methyl esters for analysis using a standard validated gas chromatography/flame ionization detection method. Fatty acid parameters were compared between EPA treatment groups and placebo using an ANCOVA model with treatment, gender, type of statin therapy, and presence of diabetes as factors, and the baseline parameter value as a covariate. LSMs, SEs, and 2-tailed 95% confidence intervals for each treatment group and for each comparison were determined.
The monounsaturated fatty acid group included myristoleic, palmitoleic, cis-vaccenic, oleic, gondoic/gadoleic, erucic and nervonic acids. The saturated fatty acid group included myristic, palmitic, stearic, arachidic, behenic and lignoceric acids. The “total omega-3” group included α-linolenic, stearidonic, eicosatrienoic, ω-3 arachidonic, eicosapentaenoic, ω-3 docosapentaenoic and docosahecaenoic acids. The “total omega-6” group included linoleic, γ-linolenic, eicosadienoic, dihomo-γ-linolenic, ω-6 arachidonic, adrenic, and ω-6 docosapentaenoic acids. The “total fatty acid” group represented the sum of the monounsaturated, saturated, total omega-3 and total omega-6 groups.

[2] = Phase 1 multidose pharmacokinetic study: total EPA in plasma (LC-MS/MS); type: in vivo, human; settings: for Total EPA in plasma, CL/F: day 28; for mean plasma CL/F of ethyl eicosapentaenoate: human
Protocol: A study to characterize the pharmacokinetics of ethyl eicosapentaenoate in plasma and red blood cells after multiple-dose administration of IPE at 2 g per day and 4 g per day was performed in healthy adult male and female humans.
The study was a phase 1, open-label, randomized, multidose study in healthy, nonsmoking men and women aged>18 and ≤55 years with a body mass index (BMI)>18 and ≤30 kg/m′. Exclusion criteria included use within 6 weeks prior to randomization through study end of any lipid-altering medications or supplements, including statins, niacin at levels of greater than 200 mg/day, fibrates, ezetimibe, bile acid sequestrants, omega-3 fatty acid medications, and supplements or foods enriched with omega-3 fatty acids (no more than 2 servings of fish per week were permitted).
Following a 14-day screening period, subjects entered a 28-day treatment period and were randomized to one of four IPE dose regimen treatment groups as shown in FIG. 1. Group 1 received IPE 2 g daily (1000-mg capsules; twice-daily [BID] regimen); Group 2 received IPE 4 g daily (1000-mg capsules; BID regimen); Group 3 received IPE 2 g daily (1000-mg capsules; once-daily [QD] regimen); and Group 4 received IPE 2 g daily (500-mg capsules; BID regimen). Treatment was administered orally, with or following a meal in the morning and evening for BID regimens, or in the morning only for the QD regimen. Subjects then entered an 18-day post-treatment pharmacokinetic sampling period.
Fasting EPA concentrations were measured with a validated liquid chromatography with tandem mass spectrometry (LC-MS/MS) method in plasma and RBCs prior to the morning dose (days 1, 14, 26, 28) and at serial time points (1, 3, 5, 6, 8, 10, 12, 24, 48, 72, 120, 192, 312, and 432 hours) after the morning dose on day 28. After the last dose on day 28, EPA concentrations were followed for 18 days to estimate the expected long half-life of EPA. Total plasma EPA included all EPA forms (unesterified EPA and that incorporated in phospholipids, triacylglycerols, and cholesteryl esters). In RBCs, EPA was measured in the cell membrane, where EPA is mainly incorporated in phospholipids.
For total EPA in plasma and RBCs, lipids were isolated by acid/methanol/chloroform extraction followed by centrifugation and purified by isohexane and solid-phase extraction after confirmed complete lipid hydrolysis and transmethylation (acid/methanol, 50° C. overnight). For unesterified EPA in plasma, 25 μL of an inhibitor solution (0.5 g sodium fluoride, 1.0 g L-ascorbic acid, and 0.25 g 5-methylisoxazole-3-carboxylic acid per 10 mL water) was included per 1 mL plasma sample to prevent degradation and lipids were isolated by centrifugation after methanol/chloroform extraction (without hydrolysis or methylation) and further purified by protein precipitation and solid-phase extraction. Quantitation utilized linolenic acid as an internal standard and EPA as the standard for the calibration curve; for total plasma EPA, RBC EPA, and unesterified EPA, the lower limits of quantitation were 10 μg/mL, 5 μg/mL, and 50 ng/mL, respectively. EPA concentrations were measured at Charles River Laboratories Ltd (Elphinstone Research Center, Tranent, Edinburgh, Scotland, UK).
Unless otherwise specified, all reported parameters are based on baseline-subtracted concentrations (baseline is due to EPA derived from dietary sources).

[3] = red blood cell, IPE 4 g/day vs placebo, week 12, P <0.0001

In the case of `CC/C=C\C/C=C\C/C=C\C/C=C\C/C=C\CCCC(=O)OCC` [IPE, all-cis eicosa-5,8,11,14,17-pentaenoic acid ethyl ester], the “Mono-unsaturated, proportion to total fatty acids, Mean placebo-adjusted percent change from baseline” value ([1]; RBCs, IPE 2 g/day vs placebo, P 0.0435) is reported as −3.1%, the “Saturated, proportion to total fatty acids, Mean placebo-adjusted percent change from baseline” value ([1]; RBCs, IPE 2 g/day vs placebo, P 0.3278) is reported as 1.1% and the “Mono-unsaturated, proportion to total fatty acids, Mean placebo-adjusted percent change from baseline” value ([1]; RBCs, IPE 4 g/day vs placebo, P 0.0154) is reported as −3.9%. For the same compound, the “Saturated, proportion to total fatty acids, Mean placebo-adjusted percent change from baseline” value ([1]; RBCs, IPE 4 g/day vs placebo, P 0.1145) was 1.9%, the “Total omega-6, proportion to total fatty acids, Mean placebo-adjusted percent change from baseline” value ([1]; RBCs, IPE 4 g/day vs placebo, P <0.0001) was −17.3% and the “AA Mean placebo-adjusted percent change from baseline” value ([1]; red blood cell, IPE 2 g/day vs placebo, week 12, P 0.0008) was −8.0%. The “Linoleic Mean placebo-adjusted percent change from baseline” value ([1]; red blood cell, IPE 2 g/day vs placebo, week 12, P 0.1278) was −4.7%, the “Oleic Mean placebo-adjusted percent change from baseline” value ([1]; red blood cell, IPE 2 g/day vs placebo, week 12, P 0.3736) was −2.1% and the “DHA Mean placebo-adjusted percent change from baseline” value ([1]; red blood cell, IPE 2 g/day vs placebo, week 12, P 0.5859) was −1.8%. The “Stearic Mean placebo-adjusted percent change from baseline” value ([1]; red blood cell, IPE 2 g/day vs placebo, week 12, P 0.5886) was 1.1%, the “Palmitic Mean placebo-adjusted percent change from baseline” value ([1]; red blood cell, IPE 2 g/day vs placebo, week 12, P 0.9465) was −0.1% and the “DPAn-3 Mean placebo-adjusted percent change from baseline” value ([1]; red blood cell, IPE 2 g/day vs placebo, week 12, P <0.0001) was 86.4%. The “DHA Mean placebo-adjusted percent change from baseline” value ([1]; red blood cell, IPE 4 g/day vs placebo, week 12, P 0.1216) was −5.2%, the “Oleic Mean placebo-adjusted percent change from baseline” value ([1]; red blood cell, IPE 4 g/day vs placebo, week 12, P 0.1325) was −3.7% and the “Palmitic Mean placebo-adjusted percent change from baseline” value ([1]; red blood cell, IPE 4 g/day vs placebo, week 12, P 0.7427) was −0.7%. For the same compound, the “Stearic Mean placebo-adjusted percent change from baseline” value ([1]; red blood cell, IPE 4 g/day vs placebo, week 12, P 0.7565) was −0.7%, the “DPAn-3 Mean placebo-adjusted percent change from baseline” value [1, 3] was 105.6% and the “Linoleic Mean placebo-adjusted percent change from baseline” value [1, 3] was −13.0%. For the same compound, the “dose linearity of EPA exposure (dose-normalized AUC and maximum concentration)” value ([2]; 2 g/day vs 4 g/day (Group 1 vs. Group 2), total plasma, total RBCs, unesterified EPA) was “Dose linearity was observed; also recorded: dose-proportional”, the “comparison of exposure between QD and BID regimens” value ([2]; 2 g/day, Group 1 vs. Group 3) was “similarity between QD and BID regimens” and the “comparison of exposure between 1×1000-mg and 2×500-mg formulations” value ([2]; 2 g/day, Group 1 vs. Group 4) was “similarity; also recorded: comparable exposures at comparable doses”. The “Total EPA in plasma, CL/F” value ([2]; Group 1: IPE 2 g/d 1 × 1000 mg BID) was 776.4 mL/h, the “Total EPA in plasma, CL/F” value ([2]; Group 2: IPE 4 g/d 2 × 1000 mg BID) was 683.7 mL/h and the “Total EPA in plasma, CL/F” value ([2]; Group 3: IPE 2 g/d 2 × 1000 mg QD) was 867.7 mL/h. For the same compound, the “Total EPA in plasma, CL/F” value ([2]; Group 4: IPE 2 g/d 2 × 500 mg BID) was 684.5 mL/h, the “mean plasma CL/F of ethyl eicosapentaenoate” value ([2]; about 1 g orally twice per day) was “about 776.4+/−256.9 mL/h” and the “mean plasma CL/F of ethyl eicosapentaenoate” value ([2]; about 2 g orally twice per day) was “about 683.7+/−280.6 mL/h”. The “effect of age on AUC0-24hr and maximum concentration of total and unesterified plasma EPA” value ([2]; graphical examination) was “no effect of age was observed” and the “effect of gender on EPA exposure parameters” value ([2]; in vivo) was “no consistent gender effect was observed”.
